Columns and labels:
[1] = Inhibition of porcine tubulin assembly measured for 30 mins by UV/visible spectrophotometric method; set-up: species or system Sus scrofa
K562 [2] = experiment: Cytotoxicity against human K562 cells assessed as growth inhibition after 5 days by MTT assay; format: functional, cell-based; settings: K562, 120 h
CCRF-CEM = experiment: Cytotoxicity against human CCRF-CEM cells assessed as growth inhibition after 48 hrs by SRB assay; format: functional
HL-60(TB) = experiment: Cytotoxicity against human HL-60(TB) cells assessed as growth inhibition after 48 hrs by SRB assay; format: functional; settings: HL-60, 48 h
K562 [3] = experiment: Cytotoxicity against human K562 cells assessed as growth inhibition after 48 hrs by SRB assay; format: functional; settings: K562, 48 h
MOLT-4 = experiment: Cytotoxicity against human MOLT4 cells assessed as growth inhibition after 48 hrs by SRB assay; format: functional; settings: MOLT-4, 48 h
RPMI-8226 = experiment: Cytotoxicity against human RPMI8226 cells assessed as growth inhibition after 48 hrs by SRB assay; format: functional; settings: RPMI-8226, 48 h
SR = experiment: Cytotoxicity against human SR cells assessed as growth inhibition after 48 hrs by SRB assay; format: functional
A549 = experiment: Cytotoxicity against human A549 cells assessed as growth inhibition after 48 hrs by SRB assay; format: functional; settings: A549, 48 h
EKVX = experiment: Cytotoxicity against human EKVX cells assessed as growth inhibition after 48 hrs by SRB assay; format: functional
HOP-62 = experiment: Cytotoxicity against human HOP62 cells assessed as growth inhibition after 48 hrs by SRB assay; format: functional; settings: HOP-62, 48 h
HOP-92 = experiment: Cytotoxicity against human HOP92 cells assessed as growth inhibition after 48 hrs by SRB assay; format: functional; settings: HOP-92, 48 h
NCI-H226 = experiment: Cytotoxicity against human NCI-H226 cells assessed as growth inhibition after 48 hrs by SRB assay; format: functional; settings: NCI-H226, 48 h
NCI-H23 = experiment: Cytotoxicity against human NCI-H23 cells assessed as growth inhibition after 48 hrs by SRB assay; format: functional; settings: NCI-H23, 48 h
NCI-H322M = experiment: Cytotoxicity against human NCI-H322M cells assessed as growth inhibition after 48 hrs by SRB assay; format: functional
NCI-H460 = experiment: Cytotoxicity against human NCI-H460 cells assessed as growth inhibition after 48 hrs by SRB assay; format: functional; settings: NCI-H460, 48 h
NCI-H522 = experiment: Cytotoxicity against human NCI-H522 cells assessed as growth inhibition after 48 hrs by SRB assay; format: functional; settings: NCI-H522, 48 h
COLO 205 = experiment: Cytotoxicity against human COLO205 cells assessed as growth inhibition after 48 hrs by SRB assay; format: functional; settings: COLO 205, 48 h
HCC 2998 = experiment: Cytotoxicity against human HCC2998 cells assessed as growth inhibition after 48 hrs by SRB assay; format: functional; settings: HCC 2998, 48 h
HCT-116 = experiment: Cytotoxicity against human HCT116 cells assessed as growth inhibition after 48 hrs by SRB assay; format: functional; settings: HCT-116, 48 h
HCT-15 = experiment: Cytotoxicity against human HCT15 cells assessed as growth inhibition after 48 hrs by SRB assay; format: functional; settings: HCT-15, 48 h
KM12 = experiment: Cytotoxicity against human KM12 cells assessed as growth inhibition after 48 hrs by SRB assay; format: functional; settings: KM12, 48 h
SW-620 = experiment: Cytotoxicity against human SW620 cells assessed as growth inhibition after 48 hrs by SRB assay; format: functional; settings: SW-620, 48 h
SF-268 = experiment: Cytotoxicity against human SF268 cells assessed as growth inhibition after 48 hrs by SRB assay; format: functional; settings: SF-268, 48 h
SF-295 = experiment: Cytotoxicity against human SF295 cells assessed as growth inhibition after 48 hrs by SRB assay; format: functional; settings: SF-295, 48 h
SF-539 = experiment: Cytotoxicity against human SF539 cells assessed as growth inhibition after 48 hrs by SRB assay; format: functional; settings: SF-539, 48 h
SNB-19 = experiment: Cytotoxicity against human SNB19 cells assessed as growth inhibition after 48 hrs by SRB assay; format: functional; settings: SNB-19, 48 h
SNB-75 = experiment: Cytotoxicity against human SNB75 cells assessed as growth inhibition after 48 hrs by SRB assay; format: functional; settings: SNB-75, 48 h
U-251 = experiment: Cytotoxicity against human U251 cells assessed as growth inhibition after 48 hrs by SRB assay; format: functional; settings: U-251, 48 h
LOX IMVI = experiment: Cytotoxicity against human LOXIMVI cells assessed as growth inhibition after 48 hrs by SRB assay; format: functional
M14 = experiment: Cytotoxicity against human M14 cells assessed as growth inhibition after 48 hrs by SRB assay; format: functional; settings: M14, 48 h
Malme-3M = experiment: Cytotoxicity against human MALME-3M cells assessed as growth inhibition after 48 hrs by SRB assay; format: functional
MDA-MB-435 = experiment: Cytotoxicity against human MDA-MB-435 cells assessed as growth inhibition after 48 hrs by SRB assay; format: functional; settings: MDA-MB-435, 48 h
SK-MEL-2 = experiment: Cytotoxicity against human SK-MEL-2 cells assessed as growth inhibition after 48 hrs by SRB assay; format: functional; settings: SK-MEL-2, 48 h
SK-MEL-5 = experiment: Cytotoxicity against human SK-MEL-5 cells assessed as growth inhibition after 48 hrs by SRB assay; format: functional; settings: SK-MEL-5, 48 h
UACC-257 = experiment: Cytotoxicity against human UACC257 cells assessed as growth inhibition after 48 hrs by SRB assay; format: functional; settings: UACC-257, 48 h
UACC-62 = experiment: Cytotoxicity against human UACC62 cells assessed as growth inhibition after 48 hrs by SRB assay; format: functional; settings: UACC-62, 48 h
IGROV-1 = experiment: Cytotoxicity against human IGROV1 cells assessed as growth inhibition after 48 hrs by SRB assay; format: functional; settings: IGROV-1, 48 h
NCI/ADR-RES = experiment: Cytotoxicity against human NCI-ADR-RES cells assessed as growth inhibition after 48 hrs by SRB assay; format: functional
OVCAR-3 = experiment: Cytotoxicity against human OVCAR3 cells assessed as growth inhibition after 48 hrs by SRB assay; format: functional; settings: OVCAR-3, 48 h
OVCAR-4 = experiment: Cytotoxicity against human OVCAR4 cells assessed as growth inhibition after 48 hrs by SRB assay; format: functional; settings: OVCAR-4, 48 h
OVCAR-8 = experiment: Cytotoxicity against human OVCAR8 cells assessed as growth inhibition after 48 hrs by SRB assay; format: functional; settings: OVCAR-8, 48 h
SK-OV-3 = experiment: Cytotoxicity against human SKOV3 cells assessed as growth inhibition after 48 hrs by SRB assay; format: functional; settings: SK-OV-3, 48 h
786-0 = experiment: Cytotoxicity against human 786-0 cells assessed as growth inhibition after 48 hrs by SRB assay; format: functional; settings: 786-0, 48 h
A498 = experiment: Cytotoxicity against human A498 cells assessed as growth inhibition after 48 hrs by SRB assay; format: functional; settings: A498, 48 h
CAKI-1 = experiment: Cytotoxicity against human Caki1 cells assessed as growth inhibition after 48 hrs by SRB assay; format: functional; settings: CAKI-1, 48 h
RXF 393 = experiment: Cytotoxicity against human RXF393 cells assessed as growth inhibition after 48 hrs by SRB assay; format: functional; settings: RXF 393, 48 h
SN12C = experiment: Cytotoxicity against human SN12C cells assessed as growth inhibition after 48 hrs by SRB assay; format: functional
TK-10 = experiment: Cytotoxicity against human TK10 cells assessed as growth inhibition after 48 hrs by SRB assay; format: functional; settings: TK-10, 48 h
UO-31 = experiment: Cytotoxicity against human UO31 cells assessed as growth inhibition after 48 hrs by SRB assay; format: functional; settings: UO-31, 48 h
DU-145 = experiment: Cytotoxicity against human DU145 cells assessed as growth inhibition after 48 hrs by SRB assay; format: functional; settings: DU-145, 48 h
PC-3 = experiment: Cytotoxicity against human PC3 cells assessed as growth inhibition after 48 hrs by SRB assay; format: functional; settings: PC-3, 48 h
BT-549 = experiment: Cytotoxicity against human BT549 cells assessed as growth inhibition after 48 hrs by SRB assay; format: functional; settings: BT-549, 48 h
Hs-578T = experiment: Cytotoxicity against human Hs 578T cells assessed as growth inhibition after 48 hrs by SRB assay; format: functional
MCF7 = experiment: Cytotoxicity against human MCF7 cells assessed as growth inhibition after 48 hrs by SRB assay; format: functional; settings: MCF7, 48 h
MDA-MB-231 = experiment: Cytotoxicity against human MDA-MB-231 cells assessed as growth inhibition after 48 hrs by SRB assay; format: functional; settings: MDA-MB-231, 48 h
MDA-MB-468 = experiment: Cytotoxicity against human MDA-MB-468 cells assessed as growth inhibition after 48 hrs by SRB assay; format: functional; settings: MDA-MB-468, 48 h
T47D = experiment: Cytotoxicity against human T47D cells assessed as growth inhibition after 48 hrs by SRB assay; format: functional

Structure (SMILES): COc1cc2c(c(OC)c1OC)-c1cc3c(cc1COC2)OCO3
- IC50 [1]: > 10 µM
- IC50 (K562 [2]): 85 µM
- GI50 (CCRF-CEM): 350 nM
- GI50 (HL-60(TB)): 390 nM
- GI50 (K562 [3]): 210 nM
- GI50 (MOLT-4): 470 nM
- GI50 (RPMI-8226): 500 nM
- GI50 (SR): 170 nM
- GI50 (A549): 440 nM
- GI50 (EKVX): 780 nM
- GI50 (HOP-62): 690 nM
- GI50 (HOP-92): 7.08 µM
- GI50 (NCI-H226): 2750 nM
- GI50 (NCI-H23): 790 nM
- GI50 (NCI-H322M): 2000 nM
- GI50 (NCI-H460): 380 nM
- GI50 (NCI-H522): 390 nM
- GI50 (COLO 205): 340 nM
- GI50 (HCC 2998): 490 nM
- GI50 (HCT-116): 370 nM
- GI50 (HCT-15): 480 nM
- GI50 (KM12): 360 nM
- GI50 (SW-620): 400 nM
- GI50 (SF-268): 1320 nM
- GI50 (SF-295): 330 nM
- GI50 (SF-539): 350 nM
- GI50 (SNB-19): 680 nM
- GI50 (SNB-75): 460 nM
- GI50 (U-251): 480 nM
- GI50 (LOX IMVI): 870 nM
- GI50 (M14): 230 nM
- GI50 (Malme-3M): > 100 µM
- GI50 (MDA-MB-435): 50 nM
- GI50 (SK-MEL-2): 560 nM
- GI50 (SK-MEL-5): 210 nM
- GI50 (UACC-257): 3.39 µM
- GI50 (UACC-62): 790 nM
- GI50 (IGROV-1): 950 nM
- GI50 (NCI/ADR-RES): 360 nM
- GI50 (OVCAR-3): 250 nM
- GI50 (OVCAR-4): 2190 nM
- GI50 (OVCAR-8): 520 nM
- GI50 (SK-OV-3): 470 nM
- GI50 (786-0): 500 nM
- GI50 (A498): 450 nM
- GI50 (CAKI-1): 56.2 µM
- GI50 (RXF 393): 200 nM
- GI50 (SN12C): 1050 nM
- GI50 (TK-10): 5.13 µM
- GI50 (UO-31): 3.98 µM
- GI50 (DU-145): 370 nM
- GI50 (PC-3): 540 nM
- GI50 (BT-549): 540 nM
- GI50 (Hs-578T): 430 nM
- GI50 (MCF7): 400 nM
- GI50 (MDA-MB-231): 1200 nM
- GI50 (MDA-MB-468): 170 nM
- GI50 (T47D): 25.7 µM

Structure (SMILES): COc1ccc2c(c1OS(=O)(=O)C(F)(F)F)COCc1cc(OC)c(OC)c(OC)c1-2
- IC50 [1]: 15 µM
- IC50 (K562 [2]): 0.25 µM

Reference: ChEMBL document CHEMBL4002643, “Tubulin-binding dibenz[c,e]oxepines: Part 2. Structural variation and biological evaluation as tumour vasculature disrupting agents” (Bioorg Med Chem, 2017)
